# Patent US8299103B2, “Compounds which selectively modulate the CB2 receptor” (Boehringer Ingelheim International GmbH, priority 2009, dated 2012)
# Like-named read-outs stand apart in the source and are kept apart here.
# Legend:
# [1] = biological target: T1, human CB1R (Homo sapiens, UniProt P21554); experiment: CB1R mediated modulation of cAMP synthesis; assay type: cell-based
# T1 construct: host or cells: CHO cells
# Experimental: C. CB1R Mediated Modulation of cAMP Synthesis:
# Compounds of the invention are evaluated for their CB1 agonist or inverse agonistic activity in accordance with the following experimental method.
# (§1) CHO cells expressing human CB1R (Euroscreen) are plated at a density of 5000 cells per well in 384 well plates and incubated overnight at 37° C. After removing the media, the cells are treated with test compounds diluted in stimulation buffer containing 1 mM IBMX, 0.25% BSA and 10 uM Forskolin. The assay is incubated for 30 minutes at 37° C. Cells are lysed and the cAMP concentration is measured using DiscoverX-XS cAMP kit, following the manufacturer's protocol. In this setting, agonists will decrease forskolin induced production of cAMP while inverse agonists will further increase forskolin induced production of cAMP. EC50 of agonists are calculated as follows. The maximal amount of cAMP produced by forskolin compared to the level of cAMP inhibited by 1 uM CP55940 is defined as 100%. The EC50 value of each test compound is determined as the concentration at which 50% of the forskolin-stimulated cAMP synthesis is inhibited. Data is analyzed using a four-parameter logistic model. (Model 205 of XLfit 4.0).
# [2] = biological target: T2, human CB2R (Homo sapiens, UniProt P34972); experiment: CB2R mediated modulation of cAMP synthesis; assay type: cell-based
# T2 construct: host or cells: CHO cells
# Experimental: B. CB2R Mediated Modulation of cAMP Synthesis:
# Compounds of the invention are evaluated for their CB2 agonist or inverse agonistic activity in accordance with the following experimental method.
# as §1, with “CB2R” for “CB1R”
# [3] = CHO cells expressing human CB1R, inhibition of forskolin-stimulated cAMP synthesis, read-out: CB1 EC50
# [4] = CHO cells expressing human CB2R, inhibition of forskolin-stimulated cAMP synthesis, read-out: CB2 EC50
# T2 sequence (P34972 whole entry): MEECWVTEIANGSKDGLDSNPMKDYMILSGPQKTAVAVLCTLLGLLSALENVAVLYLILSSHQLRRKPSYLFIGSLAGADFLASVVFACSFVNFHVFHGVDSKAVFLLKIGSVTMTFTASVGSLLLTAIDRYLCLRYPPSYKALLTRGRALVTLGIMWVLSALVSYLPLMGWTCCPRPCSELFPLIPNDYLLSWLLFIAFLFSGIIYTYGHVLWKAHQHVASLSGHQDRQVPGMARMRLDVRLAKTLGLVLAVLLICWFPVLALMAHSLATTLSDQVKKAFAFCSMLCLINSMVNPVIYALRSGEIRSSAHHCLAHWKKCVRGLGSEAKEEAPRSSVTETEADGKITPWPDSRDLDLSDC
# T1 sequence (P21554 whole entry): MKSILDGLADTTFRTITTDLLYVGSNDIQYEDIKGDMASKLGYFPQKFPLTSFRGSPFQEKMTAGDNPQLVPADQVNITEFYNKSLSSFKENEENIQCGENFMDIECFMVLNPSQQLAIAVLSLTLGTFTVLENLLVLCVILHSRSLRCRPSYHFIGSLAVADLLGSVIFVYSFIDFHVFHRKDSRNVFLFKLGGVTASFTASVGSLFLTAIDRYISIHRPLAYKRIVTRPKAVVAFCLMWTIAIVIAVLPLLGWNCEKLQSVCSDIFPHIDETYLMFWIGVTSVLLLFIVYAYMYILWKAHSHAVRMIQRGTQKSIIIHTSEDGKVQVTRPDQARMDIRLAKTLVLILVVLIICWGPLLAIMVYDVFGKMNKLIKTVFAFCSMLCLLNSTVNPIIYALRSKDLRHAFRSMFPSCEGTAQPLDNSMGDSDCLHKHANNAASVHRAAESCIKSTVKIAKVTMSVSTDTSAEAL
SMILES,EC50 [1] [µM],EC50 [2] [µM],"EC50 [1, 3] [µM]","EC50 [2, 4] [µM]",also measured
CC(C)(N[C@H]1CC[C@@H](NS(C)(=O)=O)CC1)C(=O)Nc1cc(C(C)(C)CO)no1,> 50,0.042,,,
CC(C)(NCCCC(F)(F)F)C(=O)Nc1cc(C(C)(C)CO)no1,> 50,0.031,,,
CN(CC1CCOCC1)C(C)(C)C(=O)Nc1nnc(C(C)(C)CO)s1,,,> 50,0.011,
CC(C)(CO)c1cc(NC(=O)C(C)(C)N2CC[C@@H](O)C2)on1,,,> 50,0.494,
C[C@H](O)C(C)(C)c1cc(NC(=O)C(C)(C)N(C)C2CCOCC2)on1,44.7,0.028,,,
CN(C1CCOCC1)C(C)(C)C(=O)Nc1cc(C2(CO)CCCC2)no1,21.5,0.021,,,
COCCOC(C)(C)c1cc(NC(=O)C(C)(C)N(C)C2CCOCC2)on1,> 50,0.093,,,
CN(CC1CC1)C(C)(C)C(=O)Nc1cc(C(C)(C)CO)no1,36,0.012,,,
CN(C1CC1)C(C)(C)C(=O)Nc1cc(C(C)(C)CO)no1,,0.446,,,
Cc1ncc(C(C)(C)c2cc(NC(=O)C(C)(C)NC3CCN(S(C)(=O)=O)CC3)on2)s1,,,> 50,0.195,
CC(C)(NCCC1CCOCC1)C(=O)Nc1cc(C(C)(C)CO)no1,,,> 50,0.113,
CC[C@H](C)N(C)C(C)(C)C(=O)Nc1cc(C(C)(C)CO)no1,,,> 50,0.22,
COCCOCC(C)(C)c1cc(NC(=O)C(C)(C)N(C)C2CCOCC2)on1,,,> 50,0.246,
CN(C(=O)CC1CCOCC1)C(C)(C)C(=O)Nc1cc(C(C)(C)CO)no1,> 50,0.027,,,
CN(C1CCOCC1)C(C)(C)C(=O)Nc1cc(C2(CO)CCC2)no1,> 50,0.066,,,
CN(C(=O)CCC(F)(F)F)C(C)(C)C(=O)Nc1cc(C(C)(C)CO)no1,> 50,0.069,,,
CN(C(=O)C[C@H]1CCOC1)C(C)(C)C(=O)Nc1cc(C(C)(C)CO)no1,> 50,0.025,,,
CC(C)(CO)c1cc(NC(=O)C(C)(C)N2CCCCC2)on1,22,0.028,,,
CN([C@H]1CCN(S(C)(=O)=O)C1)C(C)(C)C(=O)Nc1cc(C(C)(C)CO)no1,> 50,0.028,,,
CC(C)(NCCCC(F)(F)F)C(=O)Nc1cc(C2(CO)CCC2)no1,> 50,0.054,,,
CC(C)(NC1CCN(S(C)(=O)=O)CC1)C(=O)Nc1cc(C(C)(C)CO)no1,,,> 50,0.302,

SMILES,EC50 [1] [µM],EC50 [2] [µM],"EC50 [1, 3] [µM]","EC50 [2, 4] [µM]",also measured
CN(CC1CCOCC1)C(C)(C)C(=O)Nc1cc(C2(O)CC2)no1,> 50,0.013,,,
CN(C1CCOCC1)C(C)(C)C(=O)Nc1cc(C(C)(C)COCCO)no1,37.6,0.015,,,
CN(C1CCOCC1)C(C)(C)C(=O)Nc1cc(C(C)(C)C2CCOCC2)no1,> 50,0.044,,,
CN(C[C@H]1COCCO1)C(C)(C)C(=O)Nc1cc(C(C)(C)CO)no1,> 50,0.068,,,
CC(C)(NCCCC(F)(F)F)C(=O)Nc1cc(C(C)(C)OCCO)no1,,,> 50,0.109,
CN(C[C@H]1CCCN(S(C)(=O)=O)C1)C(C)(C)C(=O)Nc1cc(C(C)(C)CO)no1,,,> 50,0.126,
CN(CC1CCOC1)C(C)(C)C(=O)Nc1cc(C(C)(C)CO)no1 (centres unmarked),> 50,0.029,,,
CN(C[C@@H]1COCCO1)C(C)(C)C(=O)Nc1cc(C(C)(C)CO)no1,> 50,0.04,,,
COCC(C)(C)c1cc(NC(=O)C(C)(C)NCC2CCOCC2)no1,,,> 20,0.132,
CC(C)N(C)C(C)(C)C(=O)Nc1cc(C(C)(C)CO)no1,,,> 50,0.244,
CN(C1CCOCC1)C(C)(C)C(=O)Nc1cc(C(C)(C)CO)no1,> 50,0.056,,,
COCC(C)(C)c1cc(NC(=O)C(C)(C)NC2CCOCC2)on1,,,> 20,0.313,
COCC(C)(C)c1cc(NC(=O)C(C)(C)NC2CCOCC2)no1,,,> 20,0.337,
Cc1ncc(C(C)(C)c2cc(NC(=O)C(C)(C)N(C)C3CCOCC3)on2)o1,20.8,0.015,,,
CC(C)(NCC1CCOCC1)C(=O)Nc1cc(C(C)(C)COC2CCCCO2)no1 (centres unmarked),,,> 50,0.201,
CC(C)(CO)c1cc(NC(=O)C(C)(C)N2CCC(NS(C)(=O)=O)CC2)on1,> 50,0.0071,,,
CN(C(=O)CCCC(F)(F)F)C(C)(C)C(=O)Nc1cc(C(C)(C)CO)no1,32.1,0.027,,,
CC(C)(N[C@H]1CC[C@@H](O)CC1)C(=O)Nc1cc(C(C)(C)CO)no1,,,> 50,0.3,
CC(C)(NCC1CCOCC1)C(=O)Nc1cc(C(C)(C)CO)no1,,,> 50,0.374,
CC(C)(NC1CCC(NS(C)(=O)=O)CC1)C(=O)Nc1nnn(C(C)(C)C)n1 (centres unmarked),,,,,"EC50 ([1]; read-out: CB1 EC50, CHO cells expressing human CB1R, inhibition of forskolin-stimulated cAMP synthesis): > 50 µM; EC50 ([2]; read-out: CB2 EC50, CHO cells expressing human CB2R, inhibition of forskolin-stimulated cAMP synthesis): 0.033 µM"
CN([C@@H]1CCN(S(C)(=O)=O)C1)C(C)(C)C(=O)Nc1cc(C(C)(C)CO)no1,> 20,0.0017,,,
